Legend:
[1] = biological target: T1, human recombinant ETA receptor (Homo sapiens, UniProt P25101); test: Inhibition of [125I]ET-1 binding to membranes from CHO cells carrying human ETA receptors
T1 construct: expressed in transfected cells; host or cells: CHO cells (microsomal membranes)
T1 sequence (P25101 21-427): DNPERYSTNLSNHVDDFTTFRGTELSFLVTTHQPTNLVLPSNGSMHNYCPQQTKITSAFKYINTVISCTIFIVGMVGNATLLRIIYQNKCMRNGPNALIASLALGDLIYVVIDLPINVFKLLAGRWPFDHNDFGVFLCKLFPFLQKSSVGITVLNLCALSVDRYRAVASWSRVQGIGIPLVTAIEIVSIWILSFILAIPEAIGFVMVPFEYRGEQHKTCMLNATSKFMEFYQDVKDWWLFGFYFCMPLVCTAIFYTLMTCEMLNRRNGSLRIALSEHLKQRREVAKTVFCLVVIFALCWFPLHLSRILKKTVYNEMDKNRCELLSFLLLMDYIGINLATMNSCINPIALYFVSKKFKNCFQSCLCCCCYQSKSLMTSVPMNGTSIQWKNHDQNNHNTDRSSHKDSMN

[2] = biological target: T2, human recombinant ETB receptor (Homo sapiens, UniProt P24530); test: Inhibition of [125I]ET-1 binding to membranes from CHO cells carrying human ETB receptors
T2 construct: expressed in transfected cells; host or cells: CHO cells (microsomal membranes)
T2 sequence (P24530 27-442): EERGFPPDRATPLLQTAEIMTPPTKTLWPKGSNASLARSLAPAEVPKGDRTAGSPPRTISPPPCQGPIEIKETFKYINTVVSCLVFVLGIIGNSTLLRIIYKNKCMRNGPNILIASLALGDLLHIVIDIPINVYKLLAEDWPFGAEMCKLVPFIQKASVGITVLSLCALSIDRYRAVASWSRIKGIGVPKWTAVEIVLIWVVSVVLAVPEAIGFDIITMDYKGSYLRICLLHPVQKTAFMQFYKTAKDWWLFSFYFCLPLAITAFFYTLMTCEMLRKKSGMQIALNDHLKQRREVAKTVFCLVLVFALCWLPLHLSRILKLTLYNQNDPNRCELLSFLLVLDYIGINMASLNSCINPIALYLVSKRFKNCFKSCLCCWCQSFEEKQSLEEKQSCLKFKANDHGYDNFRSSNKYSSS

IC50 [1] [nM]	IC50 [2] [nM]	SMILES
2190	8740	C=CCOc1nc(-c2ccncc2)nc(NS(=O)(=O)Nc2ccc(C(C)C)cc2)c1Oc1ccccc1OC [Example 2, 4-i-propyl-phenyl sulfamic acid-[6-allyloxy-5-(o-methoxyphenoxy)-2-(4-pyridyl)-pyrimidin-4-yl]-amide]
54	> 10000	O=S(=O)(NCc1ccccc1)Nc1nc(-c2ncccn2)nc(OCCOc2ncc(Br)cn2)c1-c1ccccc1 [Example 26]
23	310	COc1cnc(OCCOc2nc(-c3ncccn3)nc(NS(=O)(=O)NC3CC3)c2Oc2ccccc2OC)nc1 [Example 200]
2.3	> 1000	CSc1cnc(OCCOc2nc(-c3ccncc3)nc(NS(=O)(=O)NCc3ccccc3)c2-c2ccc(Cl)cc2)nc1 [Example 110]
5.8	173	COc1ccccc1Oc1c(NS(=O)(=O)NCc2ccccn2)nc(-c2ncccn2)nc1OCCOc1ncc(SC)cn1 [Example 155]
0.25	96	O=S(=O)(NCC1CC1)Nc1ncnc(OCCOc2ncc(Br)cn2)c1-c1ccc(Br)cc1 [Example 107]
733	> 1000	C=CCOc1nc(-c2ccnc(-c3nnn[nH]3)c2)nc(NS(=O)(=O)NCc2ccccc2)c1Oc1ccccc1OC [Example 209, Benzylsulfamic acid [6-allyloxy-5-(2-methoxy-phenoxy)-2-[2-(1H-tetrazol-5-yl)-pyridin-4-yl]-pyrimidin-4-yl]-amide]
1	81	COc1ccc(CNS(=O)(=O)Nc2ncnc(OCCOc3ncc(OC)cn3)c2Oc2cc(OC)ccc2Cl)cc1 [Example 164]
9.5	> 1000	COc1cnc(OCCOc2ncnc(NS(=O)(=O)N(C)Cc3ccccc3)c2-c2ccc(Cl)cc2)nc1 [Example 194]
1380	744	COc1ccccc1Oc1c(NS(=O)(=O)Nc2ccc(C(C)C)cc2)nc(-c2ccncc2)nc1OCCO [Example 3, 4-i-propyl-phenyl sulfamic acid-[6-(2-hydroxy-ethoxy)-5-(o-methoxyphenoxy)-2-(4-pyridyl)-pyrimidin-4-yl]-amide]
59	> 10000	Cc1ccc(NS(=O)(=O)Nc2ncnc(OCCOc3ncc(Br)cn3)c2-c2ccc(C)cc2)cc1 [Example 12, 4-methyl-phenyl sulfamic acid-[6-[2-(5-bromo-pyrimidin-2-yloxy)-ethoxy]-5-(p-tolyl)-4-pyrimidinyl]-amide]
1240	9470	CCNS(=O)(=O)Nc1nc(-c2ccncc2)nc(OC)c1Oc1ccccc1OC [Example 7, ethyl sulfamic acid-[6-methoxy-5-(o-methoxy-phenoxy)-2-(4-pyridyl)-pyrimidin-4-yl]-amide]
1	3	COc1ccc(CNS(=O)(=O)Nc2nc(-c3ncccn3)nc(OCCOc3ncc(Br)cn3)c2Oc2ccccc2OC)cc1OC [Example 166]
3630	> 10000	COc1ccccc1Oc1c(NS(=O)(=O)Nc2ccccn2)nc(-c2ccncc2)nc1OC [Example 9, pyridine-2-sulfamic acid-[6-methoxy-5-(o-methoxyphenoxy)-2-(4-pyridyl)-4-pyrimidinyl]-amide]
37	574	COc1ccccc1Oc1c(NS(=O)(=O)NCc2ccccn2)nc(C2CC2)nc1OCCOc1ncc(Br)cn1 [Example 84]
3.6	274	COc1ccccc1Oc1c(NS(=O)(=O)NCc2cccs2)nc(-c2ccncc2)nc1OCCOC(=O)Nc1ccccn1 [Example 81]
3.1		COc1ccc(Cl)c(Oc2c(NS(=O)(=O)NCc3ccccc3)ncnc2OCCOc2ncc(Br)cn2)c1 [Example 212, Benzylsulfamic acid [6-[2-(5-bromo-pyrimidin-2-yloxy)-ethoxy]-5-(2-chloro-5-methoxy-phenoxy)-pyrimidin-4-yl]-amide]
13.5		CCc1ccc(-c2c(NS(=O)(=O)NCc3ccccc3)ncnc2OCCOc2ncc(Br)cn2)cc1 [Example 29]
23.6		COc1ccccc1Oc1c(NS(=O)(=O)NCc2ccccc2)nc(-c2cnccn2)nc1OCCOc1ncc(Br)cn1 [Example 71]
9.8		COc1ccccc1Oc1c(NS(=O)(=O)N(C)Cc2ccccc2)nc(-c2ncccn2)nc1OCCOc1ncc(Br)cn1 [Example 187]
0.88		CCNS(=O)(=O)Nc1ncnc(OCCOc2ncc(Br)cn2)c1-c1ccc(Br)cc1 [Example 104]
16		COc1ccccc1Oc1c(NS(=O)(=O)NCc2ccccc2)nc(C2CC2)nc1OCCOc1ncc(Br)cn1 [Example 88]

Further lines, the molecule ahead of its results:

SMILES	IC50 [1] [nM]	IC50 [2] [nM]
COc1ccccc1Oc1c(NS(=O)(=O)NCc2ccc(F)cc2)nc(-c2ncccn2)nc1OCCOc1ncc(Br)cn1 [Example 142]	2.6	108
COc1ccc(CNS(=O)(=O)Nc2nc(-c3ncccn3)nc(OCCOc3ncc(OC)cn3)c2Oc2ccccc2OC)cc1 [Example 49]	0.82	25.4
COc1ccccc1Oc1c(NS(=O)(=O)NCc2ccc3c(c2)OCO3)nc(-c2ccncc2)nc1OC [Example 149]	15	1320
COc1ccccc1CNS(=O)(=O)Nc1nc(-c2ncccn2)nc(OCCOC(=O)Nc2ccccc2)c1Oc1ccccc1OC [Example 176]	2.5	22
O=S(=O)(NCc1ccco1)Nc1ncnc(OCCOc2ncc(Br)cn2)c1-c1ccc(Cl)cc1 [Example 24]	2.2	2500
CSc1cnc(OCCOc2ncnc(NS(=O)(=O)NC3CC3)c2-c2ccc(Br)cc2)nc1 [Example 197]	1.16	418
COc1ccccc1CNS(=O)(=O)Nc1nc(-c2ncccn2)nc(OCCOc2ncccn2)c1Oc1ccccc1OC [Example 175]	22	62
COc1cnc(OCCOc2ncnc(NS(=O)(=O)NCc3ccc4c(c3)OCO4)c2-c2ccc(C)cc2)nc1 [Example 146]	5	514
COc1ccccc1Oc1c(NS(=O)(=O)NCc2ccccc2)ncnc1OCCOC(=O)Nc1ccccn1 [Example 98]	2.1	159
CCNS(=O)(=O)Nc1nc(-c2ncccn2)nc(OCCOc2ncc(Br)cn2)c1Oc1ccccc1OC [Example 184]	29.5	
COc1ccc(Cl)c(Oc2c(NS(=O)(=O)NCc3ccccc3)ncnc2OCCOc2ncc(S(C)(=O)=O)cn2)c1 [Example 214, Benzylsulfamic acid [5-(2-chloro-5-methoxy-phenoxy)-6-[2-(5-methanesulfonyl-pyrimidin-2-yloxy)-ethoxy]-pyrimidin-4-yl]-amide]	0.76	241
COc1cnc(OCCOc2nc(-c3ccncc3)nc(NS(=O)(=O)NCC3CCCCC3)c2Oc2ccccc2OC)nc1 [Example 131]	3.2	233
COc1ccccc1CNS(=O)(=O)Nc1nc(-c2ncccn2)nc(OCCOc2ncc(Br)cn2)c1Oc1ccccc1OC [Example 174]	3.7	93
CCCCNS(=O)(=O)Nc1ncnc(OCCOc2ncc(Br)cn2)c1-c1ccc(Cl)cc1 [Example 117]	0.45	518
COc1ccccc1Oc1c(NS(=O)(=O)NCc2ccccc2)ncnc1OCCOc1ncc(Br)cn1 [Example 96]	6.3	
COc1cccc(CNS(=O)(=O)Nc2nc(-c3ncccn3)nc(OCCOC(=O)Nc3ccccc3)c2Oc2ccccc2OC)c1 [Example 172]	3	16
COc1ccccc1Oc1c(NS(=O)(=O)NCc2ccccc2)nc(-c2ncccn2)nc1OCCOC(=O)Nc1ccccc1 [Example 43]	6.8	214
COc1ccccc1Oc1c(NS(=O)(=O)NCc2ccccc2)nc(S(C)(=O)=O)nc1OCCO [Example 204, Benzylsulfamic acid [6-(2-hydroxy-ethoxy)-2-methanesulfonyl-5-(2-methoxy-phenoxy)-pyrimidin-4-yl]-amide]	390	1050
COc1ccccc1Oc1c(NS(=O)(=O)Nc2ccc(C)cn2)nc(-c2ccncc2)nc1OC [Example 8, 5-methyl-pyridine-2-sulfamic acid-[6-methoxy-5-(o-methoxy-phenoxy)-2-(4-pyridyl)-4-pyrimidinyl]-amide]	1160	> 10000
COc1ccccc1Oc1c(NS(=O)(=O)NCc2ccccc2)nc(N2CCOCC2)nc1OCCOc1ncc(Br)cn1 [Example 206, Benzylsulfamic acid [6-[2-(5-bromo-pyrimidin-2-yloxy)-ethoxy]-5-(2-methoxy-phenoxy)-2-morpholin-4-yl-pyrimidin-4-yl]-amide]	1.03	
COc1ccccc1Oc1c(NS(=O)(=O)NCc2ccccc2)nc(-c2ccncc2)nc1OCCOc1ncc(Br)cn1 [Example 73]	1.9	
O=S(=O)(Nc1ncnc(OCCOc2ncc(Br)cn2)c1-c1ccc(Br)cc1)NC1CC1 [Example 196]	4.4	

Source: patent publication US7094781B2, “Sulfamides and their use as endothelin receptor antagonists” (Actelion Pharmaceuticals Ltd., priority 2000, dated 2006)
